{
  "source": "patent US12070472B2",
  "about": "“Treatment of drug resistant proliferative diseases with telomerase mediated telomere altering compounds” (The Board of Regents of the University of Texas System, priority 2016, dated 2024)",
  "key": {"[1]": {"test_system": "H1693", "experiment": "Sensitization by 5-azacytidine pretreatment, H1693", "format": "cell-based, human", "conditions": "500 nM 5-azacytidine for one week", "description": "(§1) All three resistant cell lines were pre-treated with 500 nM of the demethylating agent 5-azacytidine for one week. Following the 5-azacytidine pretreatment, each resistant cell line was treated with 9 different concentrations (0.01 to 1000 micromolar) of 6-thio-dG for one week. Cells were then evaluation for growth/death."}, "[2]": {"test_system": "H1993 cells", "experiment": "Sensitization by 5-azacytidine pretreatment, H1993", "format": "cell-based, human", "conditions": "500 nM 5-azacytidine for one week", "description": "as §1"}, "[3]": {"test_system": "H1819", "experiment": "Sensitization by 5-azacytidine pretreatment, H1819", "format": "cell-based, human", "conditions": "500 nM 5-azacytidine for one week", "description": "as §1"}, "[4]": {"test_system": "HCT116", "experiment": "GI 50 determination, HCT116", "format": "cell-based", "conditions": "Homo sapiens, HCT-116", "description": "(§2) Cells of each type listed in Table 2 were seeded in chamber slides."}, "[5]": {"test_system": "A549 human lung cancer cells", "experiment": "Tumor growth in xenograft animal model with A549 cells", "format": "in vivo, mice", "conditions": "2.5 mg/kg every day", "description": "Doses of 2.5 mg/kg of 6-thio-dG and 2.5 mg/kg of 6-thio-G were injected every day into mice after tumor implantation and providing time for tumor initiation. DMSO injections were used for the control. The volume of the tumor was measured."}, "[6]": {"test_system": "HCC15", "experiment": "GI 50 determination, HCC15", "format": "cell-based", "conditions": "Homo sapiens", "description": "as §2"}, "[7]": {"test_system": "A549", "experiment": "GI 50 determination, A549", "format": "cell-based", "conditions": "Homo sapiens", "description": "as §2"}, "[8]": {"test_system": "BJ-hTERT cells", "experiment": "Telomere dysfunction induced foci (TIF) assay in BJ-hTERT cells", "format": "cell-based, human", "conditions": "10 μM, after 48 hours", "description": "(§3) TIFs were quantified using Imaris software.\n(§4) Normal BJ cells and […] BJ-hTERT cells were seeded in chamber slides. Following cell attachment, 6-thio-dG (10 μM) and 6-thio-G (10 μM) were added to fresh medium of each cell type. […] A control was used for each cell type as well, where DMSO was added to fresh medium of each cell type. […] These include almost all human cancer cells and certain human diseases involving acute and chronic inflammation."}, "[9]": {"test_system": "H2882", "experiment": "GI 50 determination, H2882", "format": "cell-based", "conditions": "Homo sapiens, NCI-H2882", "description": "as §2"}, "[10]": {"test_system": "HCC4017", "experiment": "GI 50 determination, HCC4017", "format": "cell-based", "conditions": "Homo sapiens", "description": "as §2"}, "[11]": {"test_system": "HCC827", "experiment": "GI 50 determination, HCC827", "format": "cell-based", "conditions": "Homo sapiens", "description": "as §2"}, "[12]": {"test_system": "HCC515", "experiment": "GI 50 determination, HCC515", "format": "cell-based", "conditions": "Homo sapiens", "description": "as §2"}, "[13]": {"test_system": "BJ", "experiment": "GI 50 determination, BJ", "format": "cell-based", "conditions": "Homo sapiens; BJ normal cell line", "description": "as §2"}, "[14]": {"biological_target": "T1, telomerase (Homo sapiens, UniProt O14746)", "T1 construct": "endogenous in cells; host or cells: HCT116 human colon cancer cells (lysate)", "T1 sequence (O14746 whole entry)": "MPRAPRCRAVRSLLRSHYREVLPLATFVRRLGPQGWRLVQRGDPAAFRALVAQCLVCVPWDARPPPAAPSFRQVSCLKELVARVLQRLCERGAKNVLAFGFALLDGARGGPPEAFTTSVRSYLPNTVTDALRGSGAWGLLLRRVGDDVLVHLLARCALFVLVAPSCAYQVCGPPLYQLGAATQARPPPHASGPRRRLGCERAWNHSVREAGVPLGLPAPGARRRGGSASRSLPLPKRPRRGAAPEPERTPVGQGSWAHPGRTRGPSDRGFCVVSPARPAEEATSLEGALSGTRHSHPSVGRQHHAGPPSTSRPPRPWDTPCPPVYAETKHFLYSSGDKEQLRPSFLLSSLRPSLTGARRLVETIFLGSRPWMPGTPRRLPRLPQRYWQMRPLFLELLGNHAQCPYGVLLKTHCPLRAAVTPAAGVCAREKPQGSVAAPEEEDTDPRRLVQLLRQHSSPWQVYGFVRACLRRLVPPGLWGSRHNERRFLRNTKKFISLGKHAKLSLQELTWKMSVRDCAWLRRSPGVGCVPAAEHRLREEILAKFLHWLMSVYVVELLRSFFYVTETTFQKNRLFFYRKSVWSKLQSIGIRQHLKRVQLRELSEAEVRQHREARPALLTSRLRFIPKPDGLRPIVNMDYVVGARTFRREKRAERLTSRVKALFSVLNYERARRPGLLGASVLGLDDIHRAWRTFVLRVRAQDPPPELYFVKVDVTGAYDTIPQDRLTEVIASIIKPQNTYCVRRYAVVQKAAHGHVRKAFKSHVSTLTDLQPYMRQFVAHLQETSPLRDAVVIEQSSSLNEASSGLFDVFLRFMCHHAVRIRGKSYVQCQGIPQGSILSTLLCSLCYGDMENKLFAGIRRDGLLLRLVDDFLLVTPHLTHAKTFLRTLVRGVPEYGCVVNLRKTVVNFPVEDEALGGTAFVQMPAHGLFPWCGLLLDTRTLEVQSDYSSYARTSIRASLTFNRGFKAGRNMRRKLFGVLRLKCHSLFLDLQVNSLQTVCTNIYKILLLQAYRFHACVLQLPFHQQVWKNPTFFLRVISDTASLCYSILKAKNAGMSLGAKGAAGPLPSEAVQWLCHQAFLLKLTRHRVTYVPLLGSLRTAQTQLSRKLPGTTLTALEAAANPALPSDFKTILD", "T1 sequence (O60832 whole entry partner)": "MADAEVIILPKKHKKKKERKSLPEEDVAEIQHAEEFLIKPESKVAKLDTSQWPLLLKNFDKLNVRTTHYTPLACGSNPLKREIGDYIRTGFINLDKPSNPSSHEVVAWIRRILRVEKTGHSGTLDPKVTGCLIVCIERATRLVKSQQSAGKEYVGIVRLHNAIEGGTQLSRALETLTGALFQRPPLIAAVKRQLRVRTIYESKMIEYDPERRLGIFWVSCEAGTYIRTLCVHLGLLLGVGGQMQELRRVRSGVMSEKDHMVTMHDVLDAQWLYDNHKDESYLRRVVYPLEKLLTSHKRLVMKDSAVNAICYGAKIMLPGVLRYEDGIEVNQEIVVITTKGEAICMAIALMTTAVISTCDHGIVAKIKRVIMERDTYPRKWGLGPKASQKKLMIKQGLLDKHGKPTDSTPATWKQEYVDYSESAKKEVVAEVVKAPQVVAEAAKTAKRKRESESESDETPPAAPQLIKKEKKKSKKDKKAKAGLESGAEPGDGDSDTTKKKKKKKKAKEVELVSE", "T1 sequence (Q9NY12 whole entry partner)": "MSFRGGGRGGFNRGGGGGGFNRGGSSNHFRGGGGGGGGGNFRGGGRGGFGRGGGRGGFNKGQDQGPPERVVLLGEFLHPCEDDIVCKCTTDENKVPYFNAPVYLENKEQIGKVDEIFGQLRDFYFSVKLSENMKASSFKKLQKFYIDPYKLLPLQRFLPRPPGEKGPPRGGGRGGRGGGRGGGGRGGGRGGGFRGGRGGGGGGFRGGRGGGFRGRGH", "T1 sequence (Q9NX24 whole entry partner)": "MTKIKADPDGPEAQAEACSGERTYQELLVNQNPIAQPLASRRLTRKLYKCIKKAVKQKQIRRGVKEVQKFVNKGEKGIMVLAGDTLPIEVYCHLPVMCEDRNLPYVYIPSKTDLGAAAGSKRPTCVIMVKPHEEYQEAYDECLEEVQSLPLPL", "T1 sequence (Q9NPE3 whole entry partner)": "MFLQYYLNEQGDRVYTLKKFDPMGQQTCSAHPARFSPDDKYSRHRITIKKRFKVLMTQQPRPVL", "T1 sequence (Q9BUR4 whole entry partner)": "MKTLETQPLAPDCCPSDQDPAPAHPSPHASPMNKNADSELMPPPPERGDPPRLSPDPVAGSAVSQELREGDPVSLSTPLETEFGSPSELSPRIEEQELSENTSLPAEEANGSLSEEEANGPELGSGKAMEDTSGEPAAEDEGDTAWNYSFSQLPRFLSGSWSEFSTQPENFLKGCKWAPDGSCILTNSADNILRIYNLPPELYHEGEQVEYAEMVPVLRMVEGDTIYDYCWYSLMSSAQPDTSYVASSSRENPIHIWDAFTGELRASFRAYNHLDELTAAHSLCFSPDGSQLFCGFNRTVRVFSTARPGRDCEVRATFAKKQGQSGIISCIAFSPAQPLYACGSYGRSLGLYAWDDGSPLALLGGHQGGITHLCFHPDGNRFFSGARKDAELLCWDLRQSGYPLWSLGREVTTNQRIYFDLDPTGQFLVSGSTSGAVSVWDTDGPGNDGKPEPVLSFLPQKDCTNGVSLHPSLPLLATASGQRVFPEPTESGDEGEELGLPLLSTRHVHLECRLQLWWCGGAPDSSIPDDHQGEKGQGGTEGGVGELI", "experiment": "Telomerase activity by TRAP assay in treated HCT116 cells", "format": "cell-based", "conditions": "HCT116 cells treated with 1 and 10 μM every 3 days for 12 weeks", "description": "Telomerase activity was measured by the TRAP assay (Telomeric Repeat Amplification Protocol as described in Shay J. W. and Bacchetti S., “A survey of telomerase activity in human cancer,” European Journal of Cancer 1997; 33:787-91.). Briefly, HCT116 cells were treated with 1 or 10 μM 6-thio-dG for 1-12 weeks. 1×10^5 cells were collected and lysed with ice-cold NP-40 lysis buffer (10 mM Tris-HCl pH 8.0, 1.0 mM MgCl2, 1 mM EDTA, 1% NP-40, 0.25 mM sodium deoxycholate, 10% glycerol, 150 mM NaCl, 5 mM β-mercaptoethanol) for 30 min. One microliter cellular lysate for 2500 cells was used for each reaction. Hela cells were used as a positive control and lysis buffer was used as a negative control. Samples were prepared and then the telomerase extension products were amplified using PCR (95° C. for 5 min to inactivate telomerase, then 95° C. for 30 sec, 52° C. for 30 sec, 72° C. for 30 sec; 24 cycles). Samples were run on a 10% non-denaturating acrylamide gel and visualized using a Typhoon PhosphorImager scanner system (Molecular Dynamics, GE Healthcare, Piscataway, NJ) that is capable of reading Cy5 fluorescence."}, "[15]": {"test_system": "HCT116 cells", "conditions": "1 μM or 10 μM every 3 days, after 10 weeks", "description": "(§5) For long-term cellular experiments, HCT116 (1,000 cells/cm^2) and BJ (10,000 cells/cm^2) cells were fed with 6-thio-dG (1, 3, 10 μM) containing medium every three days. The cells were counted and replated every week for 10-16 weeks. Additionally, HCT116 cells (1,000 cells/cm^2) were fed with 6-thio-G (1, 3, 10 μM) every three days and each week cells were counted, collected for TRF (Telomere Restriction Fragment) analysis and replated. HCT116 cells, following treatment with 10 μM 6-thio-dG for 12 weeks, were then treated with a combination of 10 μM 6-thio-dG and 3 μM GRN163L for 2-4 weeks."}, "[16]": {"test_system": "BJ cells", "experiment": "Telomere dysfunction induced foci (TIF) assay in normal BJ cells", "format": "cell-based, human", "conditions": "10 μM, after 48 hours", "description": "as §3, §4"}, "[17]": {"test_system": "H2087", "experiment": "GI 50 determination, H2087", "format": "cell-based", "conditions": "Homo sapiens, NCI-H2087", "description": "as §2"}, "[18]": {"description": "Six WT mice were treated with 1.67 mg of 6-thio-dG/kg of body weight daily. Six WT mice were treated with 1.67 mg of 6-thio-G/kg of body weight daily. Six WT mice were treated with 5 mg of 6-thio-dG/kg of body weight daily. Six WT mice were treated with 5 mg of 6-thio-G/kg of body weight daily. The mice were given the appropriate dosage and weighed daily for 25 days."}, "[19]": {"test_system": "HCC2429", "experiment": "GI 50 determination, HCC2429", "format": "cell-based", "conditions": "Homo sapiens", "description": "as §2"}, "[20]": {"test_system": "BJ fibroblast cells", "experiment": "Telomere length assay (TRF), BJ fibroblasts long-term culture", "format": "cell-based, human", "conditions": "10 weeks, compared to untreated control", "description": "as §5"}, "[21]": {"test_system": "H2009", "experiment": "GI 50 determination, H2009", "format": "cell-based", "conditions": "Homo sapiens, NCI-H2009", "description": "as §2"}},
  "data": [
    {"smiles": "Nc1ncn([C@@H]2O[C@H](CO)[C@@H](O)[C@H]2O)c(=O)n1", "note": "[5-azacytidine]", "values": [
      {"measurement": "effect of pretreatment on sensitivity to 6-thio-dG", "setting": "[1]", "value": "no effect on the sensitivity"},
      {"measurement": "effect of pretreatment on sensitivity to 6-thio-dG", "setting": "[2]", "value": "did increase sensitivity of the H1993 cells substantially"},
      {"measurement": "effect of pretreatment on sensitivity to 6-thio-dG", "setting": "[3]", "value": "no effect on the sensitivity"}
    ]},
    {"smiles": "Nc1nc2nc[nH]c2c(=S)[nH]1", "note": "[6-thio-G, 6-thioguanine, reference compound]", "values": [
      {"measurement": "GI50", "setting": "[4]", "value": 1.2, "unit": "µM"},
      {"measurement": "histology of residual tumors", "setting": "[5]", "value": "mostly “healthy” growing cancerous cells"},
      {"measurement": "GI50", "setting": "[6]", "value": 1.1, "unit": "µM"},
      {"measurement": "GI50", "setting": "[7]", "value": 2.3, "unit": "µM"},
      {"measurement": ">4 TIFs per nucleus background subtracted", "setting": "[8]", "value": 0},
      {"measurement": "GI50", "setting": "[9]", "value": 0.6, "unit": "µM"},
      {"measurement": "GI50", "setting": "[10]", "value": 2, "unit": "µM"},
      {"measurement": "GI50", "setting": "[11]", "value": 1.7, "unit": "µM"},
      {"measurement": "GI50", "setting": "[12]", "value": 4.9, "unit": "µM"},
      {"measurement": "GI50", "setting": "[13]", "value": "> 100", "unit": "µM"},
      {"measurement": "inhibition of telomerase activity (TRAP)", "setting": "[14]", "value": "no inhibition of telomerase activity was observed"},
      {"measurement": "effect on telomere length (TRF)", "setting": "[15]", "value": "did not result in any significant effects on telomere length"},
      {"measurement": ">4 TIFs per nucleus background subtracted", "setting": "[16]", "value": 0},
      {"measurement": "GI50", "setting": "[17]", "value": 0.9, "unit": "µM"},
      {"measurement": "mortality", "setting": "[18]; WT mice, 5 mg/kg daily", "value": "all mice died by the 15th day"},
      {"measurement": "weight loss", "setting": "[18]; mouse, in vivo, 5 mg/kg", "value": "around 2 grams"},
      {"measurement": "GI50", "setting": "[19]", "value": 0.7, "unit": "µM"},
      {"measurement": "telomere shortening (TRF)", "setting": "[20]", "value": "did not show enhanced telomere shortening"},
      {"measurement": "GI50", "setting": "[21]", "value": 3.3, "unit": "µM"}
    ]}
  ]
}
